Measured values taken from US9289429B2, “Compounds and methods for inhibiting phosphate transport” (Ardelyx, Inc., priority 2010, dated 2016).

Tests used:
[1] = biological target: T1, rat NaP2b (SLC34A2) (Rattus norvegicus, UniProt Q9JJ09); assay: NaP2b-mediated Pi transport (33P uptake) in transfected HEK293 cells, rat transporter; assay type: cell-based; conditions: HEK293 cells transfected with rat NaP2b, 33P phosphate uptake, 100 uM KH2PO4; read-out: pIC50 range for rat Nap2b (converted)
T1 construct: host or cells: HEK293
T1 sequence (Q9JJ09 1-695): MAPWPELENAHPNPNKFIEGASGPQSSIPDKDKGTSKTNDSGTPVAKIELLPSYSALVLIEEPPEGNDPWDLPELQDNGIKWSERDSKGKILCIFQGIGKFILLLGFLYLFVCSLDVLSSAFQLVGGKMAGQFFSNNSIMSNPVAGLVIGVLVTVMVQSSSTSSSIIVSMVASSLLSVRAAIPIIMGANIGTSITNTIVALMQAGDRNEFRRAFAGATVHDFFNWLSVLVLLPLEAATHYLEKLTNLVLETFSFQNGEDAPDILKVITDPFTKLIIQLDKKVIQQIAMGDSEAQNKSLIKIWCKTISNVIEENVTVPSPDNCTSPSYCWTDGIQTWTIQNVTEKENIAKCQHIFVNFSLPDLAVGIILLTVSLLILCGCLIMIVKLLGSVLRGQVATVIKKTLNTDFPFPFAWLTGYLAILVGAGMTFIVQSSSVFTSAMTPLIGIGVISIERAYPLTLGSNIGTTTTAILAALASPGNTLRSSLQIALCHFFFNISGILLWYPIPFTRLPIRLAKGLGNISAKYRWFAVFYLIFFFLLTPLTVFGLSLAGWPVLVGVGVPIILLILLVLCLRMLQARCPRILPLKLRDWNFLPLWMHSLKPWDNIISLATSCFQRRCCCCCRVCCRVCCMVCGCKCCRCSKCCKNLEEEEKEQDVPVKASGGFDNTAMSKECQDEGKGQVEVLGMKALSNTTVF
Procedure: (§1) HEK293 cells were obtained from the American Type Culture collection and propagated per their instructions. Expression clones for rat and human NaP2b (SLC34A2) were obtained from Open Biosystems (Catalog numbers MRN1768-9510282, and MHS1010-99823026, respectively). The sequence of the human protein was mutated to insert a threonine after residue 37, and to introduce a N39D mutation.
(§2) The rate of phosphate (Pi) uptake into HEK293 cells was measured using a modification of the method described by Mohrmann et al. (Mohrmann, I., Mohrmann, M., Biber, J., and Murer, H. (1986) Am. J. Phys. 250(3 Pt 1):G323-30.) Transfected HEK293 cells were treated with a pharmacological agent to minimize endogenous PiT-mediated phosphate transport activity, such that the only remaining sodium-dependent phosphate transport activity is that which was bestowed by introduction of the NaP2b genes.
(§3) Cells were seeded into 96-well plates at 25,000 cells/well and cultured overnight. Lipofectamine 2000 (Invitrogen) was used to introduce the NaP2b cDNA, and the cells were allowed to approach confluence during a second overnight incubation. […] Cells were then overlayed with either choline uptake buffer or sodium uptake buffer (14 mM Tris, 137 mM sodium chloride, 5.4 mM KCl, 2.8 mM CaCl2, 1.2 mM MgSO4, 100 uM KH2PO4, PiT-silencing agent, 1 mg/mL Bovine Serum Albumin, pH 7.4) containing 6-9 uCi/mL ^33P orthophosphoric acid (Perkin Elmer) and test compound. Each compound was tested at twelve concentrations ranging from 0.1 nM to 30 uM. Assays were run in duplicate.
(§4) After incubation for 3-30 minutes at room temperature, assay mixtures were removed, and the cells were washed twice with ice cold stop solution (137 mM sodium chloride, 14 mM Tris, pH 7.4). Cells were lysed by addition of 20 μL 0.1% Tween 80 followed by 100 μL scintillation fluid, and counted using a TopCount (Perkin Elmer).
(§5) pIC50 (the negative log of the IC50) values of the test compounds were calculated using GraphPad Prism.

[2] = biological target: T2, human NaP2b (SLC34A2) (Homo sapiens, UniProt O95436); assay: NaP2b-mediated Pi transport (33P uptake) in transfected HEK293 cells, human transporter; assay type: cell-based; conditions: HEK293 cells transfected with human NaP2b (Thr inserted after residue 37, N39D), 33P phosphate uptake, 100 uM KH2PO4; read-out: pIC50 range for human Nap2b (converted)
T2 construct: host or cells: HEK293
T2 sequence (O95436 1-690): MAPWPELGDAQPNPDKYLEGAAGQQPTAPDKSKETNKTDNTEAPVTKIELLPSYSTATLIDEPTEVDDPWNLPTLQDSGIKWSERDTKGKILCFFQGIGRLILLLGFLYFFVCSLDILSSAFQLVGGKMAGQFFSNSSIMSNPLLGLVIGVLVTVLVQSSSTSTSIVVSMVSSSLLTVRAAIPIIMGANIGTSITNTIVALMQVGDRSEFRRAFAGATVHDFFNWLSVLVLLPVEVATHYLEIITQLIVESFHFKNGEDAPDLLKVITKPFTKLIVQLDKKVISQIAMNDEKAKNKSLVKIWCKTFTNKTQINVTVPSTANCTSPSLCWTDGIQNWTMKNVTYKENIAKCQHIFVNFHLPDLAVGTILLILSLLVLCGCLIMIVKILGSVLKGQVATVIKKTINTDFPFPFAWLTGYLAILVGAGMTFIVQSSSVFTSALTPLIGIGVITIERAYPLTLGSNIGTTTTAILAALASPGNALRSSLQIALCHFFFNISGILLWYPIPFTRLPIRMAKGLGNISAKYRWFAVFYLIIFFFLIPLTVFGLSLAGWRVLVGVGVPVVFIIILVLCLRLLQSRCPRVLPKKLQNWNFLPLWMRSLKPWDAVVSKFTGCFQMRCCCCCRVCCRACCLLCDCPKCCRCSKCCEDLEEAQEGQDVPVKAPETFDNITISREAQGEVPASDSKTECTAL
Procedure: as §1, §2, §3, §4, §5

[3] = biological target: T3, NaPi2b (Rattus norvegicus, UniProt Q9JJ09); assay: Competition with phosphate: Pi transport assay repeated at 2.1 vs 0.1 mM phosphate; assay type: cell-based; conditions: potency for inhibition of NaPi2b at 2.1 vs 0.1 mM phosphate
T3 construct: host or cells: HEK293
T3 sequence (Q9JJ09 1-695): T1 sequence (Q9JJ09 1-695)
Procedure: To ascertain if an inhibitor was competitive for binding with phosphate, the procedure was repeated, but raising the concentration of the substrate in the assay mixture from 0.1 to 2.1 mM phosphate.

[4] = Fecal recovery of orally administered compounds; assay type: in vivo; conditions: rat, oral gavage, feces collected until 48 hr after dosing, same animals as Example 22
Procedure: Quantitative determination of test compound level in feces after oral gavage was performed using the same set of animals used to determine test compound concentration in plasma (Example 22). The animals were kept in metabolic cages and feces were collected from the time of dosing until 48 hr after dosing. Upon collection, feces was dried by lyophilization and ground to a visually homogenous powder. Duplicate samples of ground feces from each individual animal were weighed out and extracted using organic solvent. Extracted samples were then diluted into mobile phase and test compound levels were quantitatively determined by LC-MS/MS analysis as described in “Example 22” except that the standard curve was prepared in a feces matrix. Extraction conditions were not optimized for individual compounds, and thus may represent a minimal level of recovery.

[5] = Stability in simulated gastric and intestinal fluid; assay type: in vitro ADME; conditions: incubation 6 hr, 1-20 μM
Procedure: Test compounds were incubated at 1-20 μM in simulated gastric fluid (SGF; standard USP solution with 3 mg/mL pepsin) or simulated intestinal fluid (SIF; standard USP solution with 3 mg/mL pancreatin) for 3 hr or 6 hr. HPLC-UV or HPLC-MS were used to determine test compound levels using peak area %. Results (Table 5) were reported as the percentage of test compound remaining after incubation in a given condition relative to test compound present at t=0 in the same condition.

Row | IC50 [1] | SMILES | further results
1 | < 1 µM | CN(CCN1CCOCC1)C(=O)c1cccc(C(=O)Nc2ccc(N3CCCCC3)cc2C(=O)Nc2cnc(-c3cccc(C(F)(F)F)c3)nc2)c1 [Example 10, N1-Methyl-N1-(2-morpholinoethyl)-N3-(4-(piperidin-1-yl)-2-((2-(3-(trifluoromethyl)phenyl)pyrimidin-5-yl)carbamoyl)phenyl)isophthalamide] | IC50 [2]: < 1 µM; Competitive with respect to Pi? [3]: No
2 | < 1 µM | CN(CCN1CCOCC1)C(=O)c1cccc(C(=O)Nc2ccc(N3CCCCC3)cc2C(=O)Nc2cnc(-c3ccccc3)nc2)c1 [Example 11, N1-Methyl-N1-(2-morpholinoethyl)-N3-(2-((2-phenylpyrimidin-5-yl)carbamoyl)-4-(piperidin-1-yl)phenyl)isophthalamide] | % recovered in feces [4]: 26%; IC50 [2]: < 1 µM; Competitive with respect to Pi? [3]: No
3 | 1 to 7.94 µM | Cc1ccc(-c2cnc(NC(=O)c3cc(N4CCCCC4)ccc3NC(=O)c3cccc(CSCCC(=O)O)c3)nc2)cc1C [Example 13, 3-(3-(2-(5-(3,4-dimethylphenyl)pyrimidin-2-ylcarbamoyl)-4-(piperidin-1-yl)phenylcarbamoyl)benzylthio)propanoic acid] | 
4 | 10 to 31.6 µM | O=C(O)CCSCc1cccc(C(=O)Nc2ccc(N3CCCCC3)cc2C(=O)Nc2ncc(-c3cccc(C(F)(F)F)c3)cn2)c1 [Example 14, 3-((3-((4-(Piperidin-1-yl)-2-((5-(3-(trifluoromethyl)phenyl)pyrimidin-2-yl)carbamoyl)phenyl)carbamoyl)benzyl)thio)propanoic acid] | 
5 | 1 to 7.94 µM | CN(CCOCCOCCOCCC(=O)O)C(=O)c1cccc(C(=O)Nc2ccc(N3CCCCC3)cc2C(=O)Nc2cnc(-c3ccccc3)nc2)c1 [Example 15, 2-Methyl-1-oxo-1-(3-((2-((2-phenylpyrimidin-5-yl)carbamoyl)-4-(piperidin-1-yl)phenyl)carbamoyl)phenyl)-5,8,11-trioxa-2-azatetradecan-14-oic acid] | % remaining, SGF ([5]; simulated gastric fluid with 3 mg/mL pepsin): 97%; % remaining, SIF ([5]; simulated intestinal fluid with 3 mg/mL pancreatin): 98%
6 | 10 to 31.6 µM | Cc1ccc(-c2cnc(NC(=O)c3cc(N4CCCCC4)ccc3NC(=O)c3cccc(C(=O)NCCOCCO)c3)nc2)cc1C [Example 16, N1-(2-((5-(3,4-Dimethylphenyl)pyrimidin-2-yl)carbamoyl)-4-(piperidin-1-yl)phenyl)-N3-(2-(2-hydroxyethoxy)ethyl)isophthalamide] | 
7 | 1 to 7.94 µM | O=C(O)CCOCCOCCOCCNC(=O)Cc1cccc(SCc2cccc(C(=O)Nc3ccc(N4CCCCC4)cc3C(=O)Nc3ncc(-c4ccccc4)cn3)c2)c1 [Example 17, 2-Oxo-1-(3-((3-((2-((5-phenylpyrimidin-2-yl)carbamoyl)-4-(piperidin-1-yl)phenyl)carbamoyl)benzyl)thio)phenyl)-6,9,12-trioxa-3-azapentadecan-15-oic acid] | IC50 [2]: 1 to 7.94 µM

More lines, now with the values behind:

Row | SMILES | IC50 [1] | further results
8 | Cc1ccc(-c2cnc(NC(=O)c3cc(N4CCCCC4)ccc3NC(=O)c3cccc(CSCCC(=O)O)c3)cn2)cc1C [Example 1, 3-((3-((2-((5-(3,4-Dimethylphenyl)pyrazin-2-yl)carbamoyl)-4-(piperidin-1-yl)phenyl)carbamoyl)benzyl)thio)propanoic acid] | 1 to 7.94 µM | 
9 | O=C(O)c1cccc(SCc2cccc(C(=O)Nc3ccc(N4CCCCC4)cc3C(=O)Nc3cnc(-c4ccccc4)nc3)c2)c1 [Example 3, 3-((3-((2-((2-Phenylpyrimidin-5-yl)carbamoyl)-4-(piperidin-1-yl)phenyl)carbamoyl)benzyl)thio)benzoic acid] | 1 to 7.94 µM | 
10 | Cc1ccc(-c2cnc(NC(=O)c3cc(N4CCCCC4)ccc3NC(=O)c3cccc(C(=O)NCCOCCO)c3)cn2)cc1C [Example 5, N1-(2-((5-(3,4-Dimethylphenyl)pyrazin-2-yl)carbamoyl)-4-(piperidin-1-yl)phenyl)-N3-(2-(2-hydroxyethoxy)ethyl)isophthalamide] | 10 to 31.6 µM | 
11 | O=C(NCCOCCO)c1cccc(C(=O)Nc2ccc(N3CCCCC3)cc2C(=O)Nc2cnc(-c3cccc(C(F)(F)F)c3)cn2)c1 [Example 6, N1-(2-(2-Hydroxyethoxy)ethyl)-N3-(4-(piperidin-1-yl)-2-((5-(3-(trifluoromethyl)phenyl)pyrazin-2-yl)carbamoyl)phenyl)isophthalamide] | 10 to 31.6 µM | 
12 | CCN(CC)CCN(C)Cc1cccc(C(=O)Nc2ccc(N3CCCCC3)cc2C(=O)Nc2ncc(-c3ccc(C)c(C)c3)cn2)c1 [Example 7, 2-(3-(((2-(Diethylamino)ethyl)(methyl)amino)methyl)benzamido)-N-(5-(3,4-dimethylphenyl)pyrimidin-2-yl)-5-(piperidin-1-yl)benzamide] | 1 to 7.94 µM | 
13 | O=C(NCCOCCO)c1cccc(C(=O)Nc2ccc(N3CCCCC3)cc2C(=O)Nc2ncc(-c3cccc(C(F)(F)F)c3)cn2)c1 [Example 8] | 10 to 31.6 µM | 
14 | CCN(CC)CCN(C)Cc1cccc(C(=O)Nc2ccc(N3CCCCC3)cc2C(=O)Nc2ncc(-c3cccc(C(F)(F)F)c3)cn2)c1 [Example 9, 2-(3-(((2-(Diethylamino)ethyl)(methyl)amino)methyl)benzamido)-5-(piperidin-1-yl)-N-(5-(3-(trifluoromethyl)phenyl)pyrimidin-2-yl)benzamide] | 10 to 31.6 µM | 
15 | O=C(O)P(=O)(O)O [PFA, reference compound] |  | Competitive with respect to Pi? [3]: Yes
